Laboratory results published in patent US10000486B2 (priority 2012, dated 2018).
Structures can show the parent of a compound that is named as a salt.

Legend:
[1] = tested on: Lassa GP-pseudotyped-virus; assay: microbe, parasite or virus in culture; type: cell-based, Lassa fever virus; conditions: for EC50: Human immunodeficiency virus 1, read-out: Activity (EC50 in μM vs. pseudotyped virus) Lassa
[2] = tested on: Machupo pseudotyped virus; assay: organism not typed; type: cell-based; conditions: read-out: Activity (EC50 in μM vs. pseudotyped virus) Machupo
[3] = tested on: Guanarito pseudotyped virus; assay: organism not typed; type: cell-based; conditions: read-out: Activity (EC50 in μM vs. pseudotyped virus) Guanarito
[4] = tested on: Junín pseudotyped virus; assay: organism not typed; type: cell-based; conditions: read-out: Activity (EC50 in μM vs. pseudotyped virus) Junín
[5] = tested on: Sabiá pseudotyped virus; assay: organism not typed; type: cell-based; conditions: read-out: Activity (EC50 in μM vs. pseudotyped virus) Sabiá
[6] = tested on: VSVg pseudotyped virus; assay: organism not typed; type: cell-based; conditions: read-out: Activity (EC50 in μM vs. pseudotyped virus) VSVg

Structure (SMILES)	EC50 value against Lassa GP-pseudotyped-virus [1]	EC50 [1]	EC50 [2]	EC50 [3]	EC50 [4]	EC50 [5]	EC50 [6]
CCOc1ccc(-n2cnc3cc(/C=C\c4ccc(CC)cc4)ccc32)cc1 [Compound 2, 1-(4-ethoxyphenyl)-5-[(Z)-2-(4-ethylphenyl)vinyl]benzimidazole]	submicromolar	< 1 µM	< 1 µM	< 1 µM	< 1 µM	< 1 µM	10 to 50 µM
CCOc1ccc(-n2cnc3cc(/C=C\c4ccc(CC)cc4)ccc32)nc1 [Compound 19, 1-(5-ethoxy-2-pyridyl)-5-[(Z)-2-(4-ethylphenyl)vinyl]benzimidazol hydrochloride]	–	< 1 µM	< 1 µM	–	< 1 µM	< 1 µM	10 to 50 µM
CCOc1ccc(-n2cnc3cc(/C=C\c4ccc(C(C)(C)C)cc4)ccc32)nc1 [Compound 21, 5-[(Z)-2-(4-tert-butylphenyl)vinyl]-1-(5-ethoxy-2-pyridyl)benzimidazole hydrochloride]	–	< 1 µM	< 1 µM	–	< 1 µM	< 1 µM	10 to 50 µM
COc1ccc(-n2cnc3cc(/C=C\c4ccc(C(C)C)cc4)cnc32)cc1 [Compound 24, 6-[(Z)-2-(4-isopropylphenyl)vinyl]-3-(4-methoxyphenyl)imidazo[4,5-b]pyridine]	–	< 1 µM	< 1 µM	–	< 1 µM	< 1 µM	10 to 50 µM
CCOc1ccc(-n2cnc3cc(CCc4ccc(CC)cc4)ccc32)cc1 [Compound 27, 1-(4-ethoxyphenyl)-5-[2-(4-ethylphenyl)-ethyl]benzimidazole]	–	< 1 µM	< 1 µM	< 1 µM	< 1 µM	< 1 µM	> 50 µM
CCOc1ccc(-n2cnc3cc(OCc4ccc(CC)cc4)cnc32)cc1 [Compound 31, 3-(4-ethoxyphenyl)-6-[(4-ethylphenyl)-methoxy]imidazo[4,5-b]pyridine]	–	< 1 µM	< 1 µM	< 1 µM	< 1 µM	< 1 µM	10 to 50 µM
COc1ccc(-n2cnc3cc(OCc4ccc(C(C)C)cc4)cnc32)cc1 [Compound 32, 6-[(4-isopropyl-phenyl)methoxy]-3-(4-methoxyphenyl)imidazo[4,5-b]pyridine]	–	< 1 µM	< 1 µM	–	< 1 µM	< 1 µM	10 to 50 µM
CCOc1ccc(-n2cnc3cc(SCc4ccc(CC)cc4)ccc32)cc1 [Compound 33, 1-(4-ethoxyphenyl)-5-[(4-ethylphenyl)-methylsulfanyl]benzimidazole]	–	< 1 µM	< 1 µM	< 1 µM	< 1 µM	< 1 µM	10 to 50 µM
CC(C)Oc1ccc(-n2cnc3cc(/C=C\c4ccc(C(=O)O)cc4)ccc32)cc1 [Compound 45, 4-[(Z)-2-[1-(4-isopropoxyphenyl)benzimidazol-5-yl]vinyl]benzoic acid]	–	10 to 50 µM	< 1 µM	–	< 1 µM	1 to 10 µM	> 50 µM
CCOc1ccc(-n2cnc3cc(/C=C\c4ccc(C(C)(C)O)cc4)ccc32)cc1 [Compound 61, 2-[4-[(Z)-2-[1-(4-ethoxyphenyl)benzimidazol-5-yl]vinyl]phenyl]propan-2-ol]	–	< 1 µM	< 1 µM	–	< 1 µM	< 1 µM	10 to 50 µM
